# Reference: PubChem BioAssay AID1963848 (Molecular Pharmacology Branch, DTP, NCI, 2024)
# Tested on: 379773-124-R-J2-PDC spheroid viability
# Test: Anticancer human tumor 379773-124-R-J2-PDC patient-derived endometrial carcinoma cell line growth inhibition [POLQ]
# Details: spheroids with HUVEC and MSC; for IC50: curve of first compound; for viability, T/C: stronger effect = lower value
# Summary of the method: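 Three-cell-type spheroids modelling solid tumor plus stroma served as the readout system; POL inhibitors were tested individually and in combination, concentration ranges set by clinical Cmax where known.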
# [1] = second compound 0.0316 µM, first compound 0.0316 µM
# [2] = second compound 0.0316 µM, first compound 0.1 µM
# [3] = second compound 0.0316 µM, first compound 0.316 µM
# [4] = second compound 0.0316 µM, first compound 1 µM
# [5] = second compound 0.0316 µM, first compound 3.16 µM
# [6] = second compound 0.0316 µM, first compound 10 µM
# [7] = second compound 0.1 µM, first compound 0.0316 µM
# [8] = second compound 0.1 µM, first compound 0.1 µM
# [9] = second compound 0.1 µM, first compound 0.316 µM
# [10] = second compound 0.1 µM, first compound 1 µM
# [11] = second compound 0.1 µM, first compound 3.16 µM
# [12] = second compound 0.1 µM, first compound 10 µM
# [13] = second compound 0.316 µM, first compound 0.0316 µM
# [14] = second compound 0.316 µM, first compound 0.1 µM
# [15] = second compound 0.316 µM, first compound 0.316 µM
# [16] = second compound 0.316 µM, first compound 1 µM
# [17] = second compound 0.316 µM, first compound 3.16 µM
# [18] = second compound 0.316 µM, first compound 10 µM
# [19] = second compound 1 µM, first compound 0.0316 µM
# [20] = second compound 1 µM, first compound 0.1 µM
# [21] = second compound 1 µM, first compound 0.316 µM
# [22] = second compound 1 µM, first compound 1 µM
# [23] = second compound 1 µM, first compound 3.16 µM
# [24] = second compound 1 µM, first compound 10 µM
# [25] = second compound 3.16 µM, first compound 0.0316 µM
# [26] = second compound 3.16 µM, first compound 0.1 µM
# [27] = second compound 3.16 µM, first compound 0.316 µM
# [28] = second compound 3.16 µM, first compound 1 µM
# [29] = second compound 3.16 µM, first compound 3.16 µM
# [30] = second compound 3.16 µM, first compound 10 µM
# [31] = second compound 10 µM, first compound 0.0316 µM
# [32] = second compound 10 µM, first compound 0.1 µM
# [33] = second compound 10 µM, first compound 0.316 µM
# [34] = second compound 10 µM, first compound 1 µM
# [35] = second compound 10 µM, first compound 3.16 µM
# [36] = second compound 10 µM, first compound 10 µM
# 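Note: spheroids exposed to drugs for seven days before readout.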
# 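Throughout, for viability, T/C: percent viability relative to DMSO vehicle control taken as 100%.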
smiles,measurement,setting,value
C#Cc1c(F)ccc2cc(O)cc(-c3ncc4c(N5CC6CCC(C5)N6)nc(OCC56CCCN5CC(F)C6)nc4c3F)c12 (stereo unspecified) + Cc1cccc(N(C)C(=O)C2C(O)CCN2c2nc(C)cc(C(F)(F)F)c2C#N)c1,IC50,second compound 0.0316 µM,> 10 µM
same,IC50,second compound 0.1 µM,> 10 µM
same,IC50,second compound 0.316 µM,> 10 µM
same,IC50,second compound 1 µM,> 10 µM
same,IC50,second compound 3.16 µM,> 10 µM
same,IC50,second compound 10 µM,> 10 µM
same,"viability, T/C",[1],81.5%
same,"viability, T/C",[2],89.3%
same,"viability, T/C",[3],84%
same,"viability, T/C",[4],74.6%
same,"viability, T/C",[5],84%
same,"viability, T/C",[6],82%
same,"viability, T/C",[7],93.8%
same,"viability, T/C",[8],68.7%
same,"viability, T/C",[9],85.8%
same,"viability, T/C",[10],75.2%
same,"viability, T/C",[11],84.8%
same,"viability, T/C",[12],93%
same,"viability, T/C",[13],90.8%
same,"viability, T/C",[14],93.4%
same,"viability, T/C",[15],77.9%
same,"viability, T/C",[16],86.5%
same,"viability, T/C",[17],95.5%
same,"viability, T/C",[18],88.4%
same,"viability, T/C",[19],80%
same,"viability, T/C",[20],78.9%
same,"viability, T/C",[21],73.2%
same,"viability, T/C",[22],82.2%
same,"viability, T/C",[23],95.9%
same,"viability, T/C",[24],90.6%
same,"viability, T/C",[25],78.9%
same,"viability, T/C",[26],87.3%
same,"viability, T/C",[27],85.2%
same,"viability, T/C",[28],80%
same,"viability, T/C",[29],86.2%
same,"viability, T/C",[30],79.4%
same,"viability, T/C",[31],84.9%
same,"viability, T/C",[32],79.7%
same,"viability, T/C",[33],74.2%
same,"viability, T/C",[34],78.4%
same,"viability, T/C",[35],88.9%
same,"viability, T/C",[36],93.8%
O=C(Nc1ccc(O)c(NS(=O)(=O)c2ccc(F)cc2)c1)c1ccc(-c2ccccc2)cc1 + Cc1cccc(N(C)C(=O)C2C(O)CCN2c2nc(C)cc(C(F)(F)F)c2C#N)c1,IC50,second compound 0.0316 µM,> 10 µM
same,IC50,second compound 0.1 µM,> 10 µM
same,IC50,second compound 0.316 µM,> 10 µM
same,IC50,second compound 1 µM,> 10 µM
same,IC50,second compound 3.16 µM,> 10 µM
same,IC50,second compound 10 µM,> 10 µM
same,"viability, T/C",[1],94.5%
same,"viability, T/C",[2],109%
same,"viability, T/C",[3],85.7%
same,"viability, T/C",[4],102%
same,"viability, T/C",[5],88.9%
same,"viability, T/C",[6],75.3%
same,"viability, T/C",[7],88.8%
same,"viability, T/C",[8],91.8%
same,"viability, T/C",[9],87.2%
same,"viability, T/C",[10],92.4%
same,"viability, T/C",[11],86.4%
same,"viability, T/C",[12],85.8%
same,"viability, T/C",[13],96.7%
same,"viability, T/C",[14],104%
same,"viability, T/C",[15],104%
same,"viability, T/C",[16],99.6%
same,"viability, T/C",[17],92.8%
same,"viability, T/C",[18],87%
same,"viability, T/C",[19],102%
same,"viability, T/C",[20],86.2%
same,"viability, T/C",[21],90.9%
same,"viability, T/C",[22],90.2%
same,"viability, T/C",[23],94.5%
same,"viability, T/C",[24],75.5%
same,"viability, T/C",[25],98.3%
same,"viability, T/C",[26],90.3%
same,"viability, T/C",[27],85.4%
same,"viability, T/C",[28],92.5%
same,"viability, T/C",[29],85.4%
same,"viability, T/C",[30],71%
same,"viability, T/C",[31],84%
same,"viability, T/C",[32],93.1%
same,"viability, T/C",[33],80.4%
same,"viability, T/C",[34],94%
same,"viability, T/C",[35],80.5%
same,"viability, T/C",[36],62.3%
CC1COCCN1c1cc(C2(O)CC3CCC(C2)O3)c2cnn(-c3ccn[nH]3)c2n1 (stereo unspecified) + COC1C(OC(N)=O)C(O)C(Oc2ccc3c(O)c(NC(=O)c4ccc(O)c(CC=C(C)C)c4)c(=O)oc3c2C)OC1(C)C,IC50,second compound 0.0316 µM,0.0661 µM
same,IC50,second compound 0.1 µM,0.0994 µM
same,IC50,second compound 0.316 µM,0.103 µM
same,IC50,second compound 1 µM,0.0758 µM
same,IC50,second compound 3.16 µM,0.0868 µM
same,IC50,second compound 10 µM,0.0765 µM
same,"viability, T/C",[1],74.8%
same,"viability, T/C",[2],36.6%
same,"viability, T/C",[3],14.5%
same,"viability, T/C",[4],10.8%
same,"viability, T/C",[5],7.52%
same,"viability, T/C",[6],2.19%
same,"viability, T/C",[7],82.9%
same,"viability, T/C",[8],49.9%
same,"viability, T/C",[9],11.2%
same,"viability, T/C",[10],8.68%
same,"viability, T/C",[11],7.3%
same,"viability, T/C",[12],2.55%
same,"viability, T/C",[13],90%
same,"viability, T/C",[14],51.2%
same,"viability, T/C",[15],12.9%
same,"viability, T/C",[16],10.9%
same,"viability, T/C",[17],6.18%
same,"viability, T/C",[18],2.42%
same,"viability, T/C",[19],77.8%
same,"viability, T/C",[20],41.4%
same,"viability, T/C",[21],11.6%
same,"viability, T/C",[22],10.2%
same,"viability, T/C",[23],6.65%
same,"viability, T/C",[24],1.98%
same,"viability, T/C",[25],71.9%
same,"viability, T/C",[26],47%
same,"viability, T/C",[27],11.7%
same,"viability, T/C",[28],9.21%
same,"viability, T/C",[29],7.19%
same,"viability, T/C",[30],2.23%
same,"viability, T/C",[31],75.4%
same,"viability, T/C",[32],42.4%
same,"viability, T/C",[33],10.3%
same,"viability, T/C",[34],9.86%
same,"viability, T/C",[35],7.38%
same,"viability, T/C",[36],2.73%
